# Patent US20100076047A1, “Amorphous 1-(9H-carbazol-4-yloxy)-3-[[2-(2-methoxyphenoxy)ethyl]amino]-2-propanol phosphate salt” (priority 2007, published 2010)
# Counter-ions that a name gives are not always drawn.
# How the values were obtained:
# [1] = moisture uptake on exposure to air; format: physicochemical
# [2] = storage stability of the solid amorphous form (XRD); format: physicochemical
# Excerpt: Solid amorphous Carvedilol dihydrogen phosphate is provided herein.
structure (smiles),measurement,setting,value
COc1ccccc1OCCNCC(O)COc1cccc2[nH]c3ccccc3c12 (stereo not shown) [1-(9H-carbazol-4-yloxy)-3-[[2-(2-methoxyphenoxy)ethyl]amino]-2-propanol phosphate salt],XRD pattern after moisture uptake,[1]; after picking up moisture up to 7%,remains identical
same,moisture picked up when exposed to air,"[1]; material of low moisture content exposed to air, forming higher hydrates",up to 7%
same,stability on storage,"[2]; stored under controlled humidity conditions, no conversion to a crystalline form",stable
same,stability profile compared to the existing crystalline forms,[2]; versus existing crystalline forms,superior stability profile
